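GI50 = concentration required for 50% inhibition of growth. TGI denotes the concentration required for complete inhibition of growth.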
Tests used:
Experiment in all cases: NCI tumour cell line growth inhibition, 384-well format
786-0 renal = system: 786-0 renal
A498 renal = system: A498 renal
ACHN renal = system: ACHN renal
BT-549 breast = system: BT-549 breast
CAKI-1 renal = system: CAKI-1 renal
CCRF-CEM leukemia = system: CCRF-CEM leukemia
COLO 205 colon = system: COLO 205 colon
DU-145 prostate = system: DU-145 prostate
EKVX NSCLC = system: EKVX NSCLC
HCC-2998 colon = system: HCC-2998 colon
HCT-15 colon = system: HCT-15 colon
HL-60(TB) leukemia = system: HL-60(TB) leukemia
HOP-62 NSCLC = system: HOP-62 NSCLC
HOP-92 NSCLC = system: HOP-92 NSCLC
HS 578T breast = system: HS 578T breast
HT29 colon = system: HT29 colon
IGROV1 ovarian = system: IGROV1 ovarian
K-562 leukemia = system: K-562 leukemia
KM12 colon = system: KM12 colon
LOX IMVI melanoma = system: LOX IMVI melanoma
M14 melanoma = system: M14 melanoma
MALME-3M melanoma = system: MALME-3M melanoma
MCF7 breast = system: MCF7 breast
MDA-MB-231 breast = system: MDA-MB-231 breast
MDA-MB-435 melanoma = system: MDA-MB-435 melanoma
MDA-MB-468 breast = system: MDA-MB-468 breast
MOLT-4 leukemia = system: MOLT-4 leukemia
NCI-H226 lung = system: NCI-H226 lung
NCI-H23 lung = system: NCI-H23 lung
NCI-H322M lung = system: NCI-H322M lung
NCI-H460 NSCLC = system: NCI-H460 NSCLC
NCI-H522 lung = system: NCI-H522 lung
NCI/ADR-RES ovarian = system: NCI/ADR-RES ovarian
OVCAR-3 ovarian = system: OVCAR-3 ovarian
OVCAR-4 ovarian = system: OVCAR-4 ovarian
OVCAR-5 ovarian = system: OVCAR-5 ovarian
OVCAR-8 ovarian = system: OVCAR-8 ovarian
PC-3 prostate = system: PC-3 prostate
RPMI-8226 leukemia = system: RPMI-8226 leukemia
RXF 393 renal = system: RXF 393 renal
SF-268 CNS = system: SF-268 CNS
SF-295 CNS = system: SF-295 CNS
SF-539 CNS = system: SF-539 CNS
SK-MEL-28 melanoma = system: SK-MEL-28 melanoma
SK-MEL-5 melanoma = system: SK-MEL-5 melanoma
SK-OV-3 ovarian = system: SK-OV-3 ovarian
SN12C renal = system: SN12C renal
SNB-19 CNS = system: SNB-19 CNS
SNB-75 CNS = system: SNB-75 CNS
SR leukemia = system: SR leukemia
SW-620 colon = system: SW-620 colon
T-47D breast = system: T-47D breast
TK-10 renal = system: TK-10 renal
UACC-257 melanoma = system: UACC-257 melanoma
UACC-62 melanoma = system: UACC-62 melanoma
UO-31 renal = system: UO-31 renal

CC(C)c1cnn2c(NCc3ccccc3)cc(NC[C@H]3CCNC[C@@H]3O)nc12
GI50 ([…]-0 renal): 211 nM
TGI (786-0 renal): 1520 nM
GI50 (A498 renal): 157 nM
TGI (A498 renal): 599 nM
GI50 (ACHN renal): 782 nM
TGI (ACHN renal): 11200 nM
GI50 (BT-549 breast): 241 nM
TGI (BT-549 breast): 519 nM
GI50 (CAKI-1 renal): 317 nM
TGI (CAKI-1 renal): 2820 nM
GI50 (CCRF-CEM leukemia): 213 nM
TGI (CCRF-CEM leukemia): 380 nM
GI50 (COLO 205 colon): 133 nM
TGI (COLO 205 colon): 411 nM
GI50 (DU-145 prostate): 111 nM
TGI (DU-145 prostate): 1780 nM
GI50 (EKVX NSCLC): 467 nM
TGI (EKVX NSCLC): 2530 nM
GI50 (HCC-2998 colon): 223 nM
TGI (HCC-2998 colon): 787 nM
GI50 (HCT-15 colon): 1300 nM
TGI (HCT-15 colon): 8560 nM
GI50 (HL-60(TB) leukemia): 156 nM
TGI (HL-60(TB) leukemia): 291 nM
GI50 (HOP-62 NSCLC): 131 nM
TGI (HOP-62 NSCLC): 346 nM
GI50 (HOP-92 NSCLC): 382 nM
TGI (HOP-92 NSCLC): 2340 nM
GI50 (HS 578T breast): 214 nM
TGI (HS 578T breast): 501 nM
GI50 (HT29 colon): 330 nM
TGI (HT29 colon): 10700 nM
GI50 (IGROV1 ovarian): 332 nM
TGI (IGROV1 ovarian): 2870 nM
GI50 (K-562 leukemia): 389 nM
TGI (K-562 leukemia): 1960 nM
GI50 (KM12 colon): 128 nM
TGI (KM12 colon): 541 nM
GI50 (LOX IMVI melanoma): 84.5 nM
TGI (LOX IMVI melanoma): 260 nM
GI50 (M14 melanoma): 292 nM
TGI (M14 melanoma): 1190 nM
GI50 (MALME-3M melanoma): 345 nM
TGI (MALME-3M melanoma): 1800 nM
GI50 (MCF7 breast): 113 nM
TGI (MCF7 breast): 474 nM
GI50 (MDA-MB-231 breast): 290 nM
TGI (MDA-MB-231 breast): 1730 nM
GI50 (MDA-MB-435 melanoma): 409 nM
TGI (MDA-MB-435 melanoma): 1450 nM
GI50 (MDA-MB-468 breast): 328 nM
TGI (MDA-MB-468 breast): 662 nM
GI50 (MOLT-4 leukemia): 122 nM
TGI (MOLT-4 leukemia): 267 nM
GI50 (NCI-H226 lung): 193 nM
TGI (NCI-H226 lung): 675 nM
GI50 (NCI-H23 lung): 167 nM
TGI (NCI-H23 lung): 644 nM
GI50 (NCI-H322M lung): 291 nM
TGI (NCI-H322M lung): 975 nM
GI50 (NCI-H460 NSCLC): 22.6 nM
TGI (NCI-H460 NSCLC): 64.6 nM
GI50 (NCI-H522 lung): 164 nM
TGI (NCI-H522 lung): 1680 nM
GI50 (NCI/ADR-RES ovarian): 13800 nM
TGI (NCI/ADR-RES ovarian): 28900 nM
GI50 (OVCAR-3 ovarian): 105 nM
TGI (OVCAR-3 ovarian): 578 nM
GI50 (OVCAR-4 ovarian): 154 nM
TGI (OVCAR-4 ovarian): 475 nM
GI50 (OVCAR-5 ovarian): 246 nM
TGI (OVCAR-5 ovarian): 770 nM
GI50 (OVCAR-8 ovarian): 249 nM
TGI (OVCAR-8 ovarian): 973 nM
GI50 (PC-3 prostate): 271 nM
TGI (PC-3 prostate): 985 nM
GI50 (RPMI-8226 leukemia): 16.9 nM
TGI (RPMI-8226 leukemia): 56.5 nM
GI50 (RXF 393 renal): 251 nM
TGI (RXF 393 renal): 635 nM
GI50 (SF-268 CNS): 173 nM
TGI (SF-268 CNS): 411 nM
GI50 (SF-295 CNS): 419 nM
TGI (SF-295 CNS): 3460 nM
GI50 (SF-539 CNS): 107 nM
TGI (SF-539 CNS): 345 nM
GI50 (SK-MEL-28 melanoma): 226 nM
TGI (SK-MEL-28 melanoma): 1130 nM
GI50 (SK-MEL-5 melanoma): 242 nM
TGI (SK-MEL-5 melanoma): 655 nM
GI50 (SK-OV-3 ovarian): 360 nM
TGI (SK-OV-3 ovarian): 6890 nM
GI50 (SN12C renal): 168 nM
TGI (SN12C renal): 841 nM
GI50 (SNB-19 CNS): 410 nM
TGI (SNB-19 CNS): 10500 nM
GI50 (SNB-75 CNS): 789 nM
TGI (SNB-75 CNS): 2040 nM
GI50 (SR leukemia): 23.5 nM
TGI (SR leukemia): 103 nM
GI50 (SW-620 colon): 167 nM
TGI (SW-620 colon): 1660 nM
GI50 (T-47D breast): 404 nM
TGI (T-47D breast): 3740 nM
GI50 (TK-10 renal): 2980 nM
TGI (TK-10 renal): 14000 nM
GI50 (UACC-257 melanoma): 371 nM
TGI (UACC-257 melanoma): 1660 nM
GI50 (UACC-62 melanoma): 57.8 nM
TGI (UACC-62 melanoma): 238 nM
GI50 (UO-31 renal): 3870 nM
TGI (UO-31 renal): 14800 nM

FC(F)(c1ccc2ncccc2c1)c1nnc2ccc(-c3ccncc3)nn12
GI50 ([…]-0 renal): 191 nM
TGI (786-0 renal): > 100000 nM
GI50 (HCC-2998 colon): < 10 nM
TGI (HCC-2998 colon): > 100000 nM
GI50 (HCT-15 colon): 55.7 nM
TGI (HCT-15 colon): > 100000 nM
GI50 (HS 578T breast): < 10 nM
TGI (HS 578T breast): 137 nM
GI50 (HT29 colon): 185 nM
TGI (HT29 colon): > 100000 nM
GI50 (K-562 leukemia): 219 nM
TGI (K-562 leukemia): > 100000 nM
GI50 (MDA-MB-468 breast): 22 nM
TGI (MDA-MB-468 breast): 628 nM
GI50 (MOLT-4 leukemia): 10.2 nM
TGI (MOLT-4 leukemia): 183 nM
GI50 (NCI-H322M lung): < 10 nM
TGI (NCI-H322M lung): > 100000 nM
GI50 (NCI-H460 NSCLC): < 10 nM
TGI (NCI-H460 NSCLC): > 100000 nM
GI50 (NCI/ADR-RES ovarian): 460 nM
TGI (NCI/ADR-RES ovarian): 27200 nM
GI50 (OVCAR-5 ovarian): 112 nM
TGI (OVCAR-5 ovarian): > 100000 nM
GI50 (RPMI-8226 leukemia): < 10 nM
GI50 (RXF 393 renal): 11.2 nM
TGI (RXF 393 renal): 206 nM
GI50 (SF-295 CNS): < 10 nM
TGI (SF-295 CNS): 108 nM
GI50 (SF-539 CNS): 164 nM
TGI (SF-539 CNS): > 100000 nM
GI50 (SN12C renal): 33 nM
TGI (SN12C renal): > 100000 nM
GI50 (SR leukemia): < 10 nM
TGI (SR leukemia): 126 nM
